Measurements published in patent US5747661A, “Retinoid-inducible response elements” (Howard Hughes Medical Institute).
“Also recorded” adds a separate entry of the source.

B1: LXRE (ΔMTV) (dsDNA)
DNA 1: CTTGCGGTTCCCAGGGTTTAAATAAGTTCA
DNA 2: TGAACTTATTTAAACCCTGGGAACCGCAAG

Legend:
[1] = system: RARs; conditions: from the literature; cited from earlier work
[2] = system: RXRs; conditions: from the literature; cited from earlier work
[3] = system: hLXRα; assay: CV-1 cotransfection assay, hLXRα expression plasmid with LXRE luciferase reporter (TK-LXRE3-LUC / TK-LXRE2-LUC); type: cell-based, human
Experimental: (§1) CV-1 cells were maintained at 37° C., 5% CO2 in DMEM containing 5% calf bovine serum (CBS). Transfections were performed in 8-well plates in media containing 5% dextran-charcoal stripped CBS by the calcium phosphate coprecipitation technique as described previously (Mangelsdorf et al., (1990) supra). Eight hours after transfections ligands were delivered to cells at 10^3 -fold dilutions (0.1% vol/vol of solvent in media). Retinoids (gifts from Marcus Boehm at Ligand Pharmaceuticals, Inc.) were manipulated under gold light and stored dark in ethanol or methanol under nitrogen gas at -80° C. Cells were harvested 36 hours after addition of ligand and analyzed for luciferase and β-galactosidase activity using a Dynatech microtiter plate Model ML3000 luminometer and a Model MR5000 spectrophotometer, respectively.
For most experiments, cotransfection of DNA into mammalian cells was accomplished with 50 ng reporter plasmid, 50 ng RSV- or CMX-βgal, 25 ng of each receptor expression plasmid and pGEM carrier to give 375 ng DNA/well. For controls, the empty CMX vector was used in place of the receptor cDNA. For the GAL4-receptor chimera experiments, 30 ng receptor and 80 ng of reporter plasmid were used. For GAL4 and VP16 chimera interaction assays, 30 ng of GAL4-LXRα and 15 ng of the VP16-RAR or -RXR were used along with 80 ng of the reporter plasmid. All transfection data points were normalized using an internal β-galactosidase marker (Mangelsdorf et al., (1990) supra) and represent the mean of duplicate or triplicate assays.
To identify a potential ligand for the orphan receptor LXRα, a cell-based cotransfection screening assay similar to that used to successfully identify the RXR ligand (see Mangelsdorf et al., (1990) supra; Heyman et al., in Cell68:397-406 (1992)) was employed. Initially an LXR responsive gene was unknown, therefore the preliminary experiments were designed to first identify an LXR-specific DNA binding sequence that could serve as an LXR responsive element (referred to as an LXRE). […] Thus, an assay system was established by transfecting CV-1 cells with an expression plasmid harboring the cDNA for LXRα and the luciferase reporter plasmid TK-LXRE3-LUC (see FIG. 2a). TK-LXRE3-LUC contains three copies of the LXRE defined herein; TK-CRBPII-LUC contains the RXRE from the rat CRBPII promoter (Mangelsdorf et al., (1991) supra)); TK-βRE-LUC contains the RAR response element from the mouse RARβ2 promoter (Sucov et al., (1990) supra). Luciferase activity is expressed in relative light units (RLU) and represents the mean of triplicate assays (±SEM) normalized to βgal as an internal standard.
Thus, expression plasmids for hLXRα, hRXRα, or no receptor (-) were cotransfected into CV1 cells in combination with the reporter plasmids TK-LUC or TK-LXRE2-LUC as indicated. […]

[4] = molecular target: T1, hRXRα (Homo sapiens, UniProt P19793); assay: CV-1 cotransfection assay, hRXRα expression plasmid with RXRE luciferase reporter TK-CRBPII-LUC; type: cell-based; conditions: CV1 cells, 10^-4 M methoprene acid, FIG. 2d
T1 construct: Construction of wild-type receptor inserted into the expression vectors RSV and CMX; expressed in transfected cells; host or cells: CV-1
Experimental: as §1
(§2) For most experiments, cotransfection of DNA into mammalian cells was accomplished with 50 ng reporter plasmid, 50 ng RSV- or CMX-βgal, 25 ng of each receptor expression plasmid and pGEM carrier to give 375 ng DNA/well. For controls, the empty CMX vector was used in place of the receptor cDNA. For the GAL4-receptor chimera experiments, 30 ng receptor and 80 ng of reporter plasmid were used. For GAL4 and VP16 chimera interaction assays, 30 ng of GAL4-LXRα and 15 ng of the VP16-RAR or -RXR were used along with 80 ng of the reporter plasmid. […]

[5] = molecular target: T2, LXR/RXR heterodimer (Homo sapiens, UniProt P19793); assay: CV1 cotransfection of both hLXRα and hRXRα with LXRE reporter TK-LXRE2-LUC; type: cell-based; conditions: CV1 cells, 25 ng hLXRα:2.5 ng hRXRα; 10^-4 M methoprene acid; FIG. 4
T2 construct: Construction of wild-type receptor inserted into the expression vectors RSV and CMX; expressed in transfected cells; host or cells: CV-1
Experimental: Thus, expression plasmids for hLXRα, hRXRα, or no receptor (-) were cotransfected into CV1 cells in combination with the reporter plasmids TK-LUC or TK-LXRE2-LUC as indicated. Cells were then incubated with ethanol control (-) or […] methoprene acid (+) and assayed for luciferase activity as described above. TK-LXRE2-LUC contains two copies of the LXRE. In experiments in which LXR and RXR plasmids were cotransfected together the ratio of the two expression plasmids was 1:0.1 (25 ng hLXRα:2.5 ng hRXRα). In all other experiments were LXR and RXR were added alone, the amount of each receptor expression plasmid was 25 ng.

[6] = molecular target: T3, hRARα (Homo sapiens, UniProt P10276); assay: CV-1 cotransfection assay with RAR response element luciferase reporter (TK-βRE-LUC); type: cell-based; conditions: CV1 cells; 10^-5 M TTNPB, 10^-4 M methoprene acid; occurs also without transfected RAR or RXR
T3 construct: Construction of wild-type receptor inserted into the expression vectors RSV and CMX; expressed in transfected cells; host or cells: CV-1
Experimental: as §1, §2

[7] = molecular target: T4, GAL4-RAR (Homo sapiens, UniProt P10276); assay: GAL4-receptor chimera ligand activation, GAL4-RAR with TK-MH100x4-LUC in CV1 cells; type: cell-based; conditions: 10^-5 M 9cRA, 10^-5 M TTNPB, 10^-4 M methoprene acid, FIG. 3c
T4 construct: hRARα 185-462; expressed in transfected cells; host or cells: CV-1
T4 sequence (P10276 185-462): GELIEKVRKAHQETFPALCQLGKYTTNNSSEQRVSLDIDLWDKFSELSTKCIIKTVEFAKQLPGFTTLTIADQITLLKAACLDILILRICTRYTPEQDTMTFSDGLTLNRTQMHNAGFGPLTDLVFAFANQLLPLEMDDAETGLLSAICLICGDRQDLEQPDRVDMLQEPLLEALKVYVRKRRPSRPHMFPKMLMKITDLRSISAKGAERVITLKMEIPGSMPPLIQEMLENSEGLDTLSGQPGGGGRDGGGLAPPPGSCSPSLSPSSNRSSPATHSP
Experimental: (§3) FIG. 3C illustrates the ligand specificity of the GAL4-receptor chimeras. […] In both 3B and 3C, CV1 cells were cotransfected as described previously with CMX vectors driving expression of the indicated hybrid proteins and the reporter plasmid TK-MH100x4-LUC, which contains four copies of the GAL4 DNA upstream activation sequence. In FIG. 3C, ligands were added as described with reference to FIG. 2. Luciferase activity is expressed as RLUs (relative light units) corrected for transfection efficiency using an internal […] standard and represents the mean of triplicate assays (±SEM).
(§4) The hLXRα cDNA insert was excised from the plasmid pXR2ΔRV with Kpn1 and BamHI and ligated into the expression vectors RSV and CMX. […] The cDNAs encoding the ligand-binding domain (LBD) of each of the receptors were then ligated into the polylinker to create GAL4-LBD fusions.
(§5) Such heterologous system provides an effective means for directly assaying receptor/ligand interactions, even in the presence of endogenous wild-type receptors.

[8] = molecular target: T1, hRXRα; assay: CV1 cotransfection of hRXRα alone with LXRE luciferase reporter; type: cell-based; conditions: CV1 cells, 25 ng hRXRα; 10^-4 M methoprene acid; FIG. 4
Experimental: as §1, §2

[9] = molecular target: T5, GAL4-LXR (Homo sapiens, UniProt Q13133); assay: GAL4-receptor chimera ligand activation, GAL4-LXR with TK-MH100x4-LUC in CV1 cells; type: cell-based; conditions: 10^-5 M 9cRA, 10^-5 M TTNPB, 10^-4 M methoprene acid, FIG. 3c
T5 construct: hLXRα 166-447; expressed in transfected cells; host or cells: CV-1
T5 sequence (Q13133 166-447): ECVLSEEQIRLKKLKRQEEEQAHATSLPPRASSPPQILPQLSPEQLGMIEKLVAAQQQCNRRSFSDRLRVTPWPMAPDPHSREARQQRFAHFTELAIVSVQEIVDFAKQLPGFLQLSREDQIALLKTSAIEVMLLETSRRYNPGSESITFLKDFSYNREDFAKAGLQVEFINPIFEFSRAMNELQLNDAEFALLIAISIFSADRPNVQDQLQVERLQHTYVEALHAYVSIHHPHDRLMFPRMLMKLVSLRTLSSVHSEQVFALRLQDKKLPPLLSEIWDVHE
Experimental: as §3
Construction of wild-type receptor inserted into the expression vectors RSV and CMX, have been detailed elsewhere (Gigueere et al., in Cell46:645-652 (1986); Umesono et al., in Cell65:1255-1266 (1991); Mangelsdorf et al., (1990) supra). The hLXRα cDNA insert was excised from the plasmid pXR2ΔRV with Kpn1 and BamHI and ligated into the expression vectors RSV and CMX. Chimeric Gal4-receptor expression plasmids (e.g. CMX-GAL4-LXRα) were constructed by first ligating the GAL4 portion of pSG424 (Sadowski and Ptashne, in Nucleic Acids Res. 17:[…] (1989)) into the HindIII/SacI sites of pCMX (Umesono et al., in Cell 65:1255-1266 (1991)) to create pCMX-GAL4. This vector contains the CMV promoter fused to the coding sequence for GAL4 (1-147), followed by inframe polylinker cloning sites and translational stop codons. The cDNAs encoding the ligand-binding domain (LBD) of each of the receptors were then ligated into the polylinker to create GAL4-LBD fusions.
The following receptor amino acid sequences were used for these constructions and their corresponding DNA sequences ligated into pCMX-GAL4:hLXRα 166-447, hRXRα 203-462 and hRARα 185-462.
To address the possibility that the retinoid response elicited by LXRα was through the direct interaction of ligand with the putative ligand binding domain of LXRα, ligand activation experiments were performed with the GAL4-receptor hybrids. […]

[10] = molecular target: T6, GAL4-RXR (Homo sapiens, UniProt P19793); assay: GAL4-receptor chimera ligand activation, GAL4-RXR with TK-MH100x4-LUC in CV1 cells; type: cell-based; conditions: 10^-5 M 9cRA, 10^-5 M TTNPB, 10^-4 M methoprene acid, FIG. 3c
T6 construct: hRXRα 203-462; expressed in transfected cells; host or cells: CV-1
Experimental: as §3, §4, §5

[11] = molecular target: LXRα/RXRα heterodimer (Homo sapiens, UniProt Q13133;P19793 Q13133:1-447,P19793:1-462); assay: EMSA; strong complex; supershifted by anti-RXRα; 75 mM KCl, 20 mM Hepes pH 7.4; conditions: tags: none; coupled in vitro transcription/translation (Promega); label: 32P; HindIII overhangs
Experimental: (§6) For EMSA experiments, receptor proteins were generated using a coupled in vitro transcription/translation system according to the manufacturer's instructions (Promega). Sequences of double-stranded oligonucleotides were as shown in the figures and text and were synthesized with HindIII overhangs. Binding reactions were performed in a total volume of 20 μl consisting of 75 mM KCl, 20 mM Hepes, pH 7.4, 2 mM DTT, 7.5% glycerol, 0.1% NP-40, 2
(§7) MG poly (dI-dC) (Pharmacia), 40 pmol of a non-specific single-stranded oligonucleotide (for removal of non-specific binding in the lysates), and 2 μl of receptor lysates or unprogrammed (control) lysates. Reactions containing lysates and competing oligonucleotides were incubated for 30 minutes on ice followed by the addition of 40 fmol of ^32P-labeled oligonucleotide probe (labeled by end-filling) and further incubated for 20 minutes at room temperature. Samples were then analyzed on 5% polyacrylamide gels run in 0.5X TBE buffer. For antibody supershifting experiments, 1 μl of anti-hRXRα antiserum (a gift from Jacki Dyck), or non-specific antiserum was added to the reactions after addition of the radiolabeled probe and incubated at room temperature for 10 minutes, followed by gel electrophoresis.

[12] = molecular target: RXRα (Homo sapiens, UniProt P19793 P19793:1-462); assay: EMSA; RXRα alone; conditions: label: 32P; HindIII overhangs
Experimental: as §6, §7

T1 sequence (P19793 whole entry): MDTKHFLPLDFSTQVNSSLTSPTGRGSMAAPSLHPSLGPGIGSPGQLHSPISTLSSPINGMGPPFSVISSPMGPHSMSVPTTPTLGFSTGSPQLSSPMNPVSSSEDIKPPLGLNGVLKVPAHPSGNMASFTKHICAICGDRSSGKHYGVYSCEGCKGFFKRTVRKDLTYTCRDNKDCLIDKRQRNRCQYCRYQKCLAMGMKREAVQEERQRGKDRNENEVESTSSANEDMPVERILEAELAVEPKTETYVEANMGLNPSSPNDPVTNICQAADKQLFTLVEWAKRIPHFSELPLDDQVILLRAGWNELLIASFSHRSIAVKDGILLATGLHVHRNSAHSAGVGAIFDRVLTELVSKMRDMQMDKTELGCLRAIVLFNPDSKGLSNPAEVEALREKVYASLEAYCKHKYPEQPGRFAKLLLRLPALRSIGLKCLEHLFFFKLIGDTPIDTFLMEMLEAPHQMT
LXRα/RXRα heterodimer, sequence (P19793 whole entry, one chain of several): as the sequence (P19793 whole entry) above
RXRα, sequence (P19793 whole entry, one chain of several): as the sequence (P19793 whole entry) above
T3 sequence (P10276 whole entry): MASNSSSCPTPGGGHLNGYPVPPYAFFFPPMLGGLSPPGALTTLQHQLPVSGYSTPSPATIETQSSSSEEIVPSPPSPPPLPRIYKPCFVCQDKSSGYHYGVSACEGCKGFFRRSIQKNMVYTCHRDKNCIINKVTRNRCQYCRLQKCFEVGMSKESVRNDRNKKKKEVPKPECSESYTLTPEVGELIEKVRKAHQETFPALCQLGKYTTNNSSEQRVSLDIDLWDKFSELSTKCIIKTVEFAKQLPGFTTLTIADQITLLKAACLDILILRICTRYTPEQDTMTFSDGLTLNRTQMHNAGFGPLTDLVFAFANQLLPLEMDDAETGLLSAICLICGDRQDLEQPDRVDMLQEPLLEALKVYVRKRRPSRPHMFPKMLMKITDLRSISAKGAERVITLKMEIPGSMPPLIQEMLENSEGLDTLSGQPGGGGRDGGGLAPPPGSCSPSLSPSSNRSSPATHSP
T3 sequence (P19793 whole entry, further chain): as the sequence (P19793 whole entry) above
T2 sequence (Q13133 whole entry A196R): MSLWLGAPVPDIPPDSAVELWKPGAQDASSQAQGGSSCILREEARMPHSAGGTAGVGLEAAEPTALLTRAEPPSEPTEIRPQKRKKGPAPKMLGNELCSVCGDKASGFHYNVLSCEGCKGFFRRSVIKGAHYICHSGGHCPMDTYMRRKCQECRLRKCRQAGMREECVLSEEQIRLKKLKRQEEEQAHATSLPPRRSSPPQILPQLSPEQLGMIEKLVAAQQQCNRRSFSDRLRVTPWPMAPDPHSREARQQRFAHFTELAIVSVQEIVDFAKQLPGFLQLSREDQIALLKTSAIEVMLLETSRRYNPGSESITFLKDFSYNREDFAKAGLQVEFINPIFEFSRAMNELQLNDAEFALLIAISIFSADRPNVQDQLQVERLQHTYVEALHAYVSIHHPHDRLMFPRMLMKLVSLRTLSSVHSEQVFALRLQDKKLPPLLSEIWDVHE
T2 sequence (P19793 whole entry): as the sequence (P19793 whole entry) above
T6 sequence (P19793 203-462): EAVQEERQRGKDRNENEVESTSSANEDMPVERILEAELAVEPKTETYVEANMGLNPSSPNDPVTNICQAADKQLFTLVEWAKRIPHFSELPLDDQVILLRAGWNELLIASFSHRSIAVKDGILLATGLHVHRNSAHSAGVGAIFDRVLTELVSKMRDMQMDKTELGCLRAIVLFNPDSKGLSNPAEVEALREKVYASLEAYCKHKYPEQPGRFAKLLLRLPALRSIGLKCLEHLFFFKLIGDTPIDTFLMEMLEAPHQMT

Row | Molecule | Ligand binding / specificity for RAR [1] | Ligand binding / specificity for RXR [2] | Ligand response of TK-LXRE2-LUC with LXRα alone ([3]; CV1 cells, 25 ng hLXRα, methoprene acid, FIG. 4) | LXRα activation of LXRE-containing luciferase reporter (TK-LXRE3-LUC) ([3]; CV-1 cells, hLXRα transfected alone, 10^-5 M 9cRA, 10^-5 M TTNPB, 10^-4 M methoprene acid, harvested 36 hours after ligand) | Response of RXRE reporter TK-CRBPII-LUC in the presence of RXRα ([4]; hRXRα transfected) | Response of RXRE reporter TK-CRBPII-LUC with RARα or LXRα transfected instead of RXRα [4] | Retinoid responsive activity of TK-LXRE2-LUC with LXRα and RXRα together [5] | Retinoid response of RAR response element reporter [6] | Ligand inducible transactivation by GAL4-RAR chimera [7] | Ligand response of TK-LXRE2-LUC with RXRα alone [8] | Ligand inducible transactivation by GAL4-LXR chimera [9] | Ligand inducible transactivation by GAL4-RXR chimera [10] | binding result [11] | binding result [12]
1 | CC1=C(/C=C/C(C)=C/C=C/C(C)=C/C(=O)O)C(C)(C)CCC1 [atRA, All-trans retinoic acid] | ligand for only RARs | ligand for only RARs |  |  |  |  |  |  |  |  |  |  |  | 
2 | COC(C)(C)CCCC(C)C/C=C/C(C)=C/C(=O)O (stereo not drawn) [methoprene acid] |  | RXR-specific | marked ligand response | strongly activated; also recorded: strongly activates transcription | marked response | not RARα or LXRα | dramatic synergistic increase | occurs through an RXR homodimer | only activates RXR | no response | no activation | only activates RXR |  | 
3 | B1 |  |  |  |  |  |  |  |  |  |  |  |  | binds | no binding
